Measurements: patent US12454529B2, “Piperazine cyclic ureas” (SIRONAX LTD., priority 2020, dated 2025)

Each molecule was assayed on HT-29 cells (assay: HT-29 cell necrosis/necroptosis inhibition (TNF-α + SMAC mimetic + zVAD-FMK; CellTiter-Glo cell viability)). Details: Homo sapiens; HT-29 cells, TNF-α 10 ng/ml + SMAC mimetic 6 μM + zVAD-FMK 10 μM, 20 hours; geometric mean, 10 points in duplicate; read-out: EC50 (Cell activity; Necrosis/Necroptosis Inhibitory Activity, Compounds 1-142).
Assay type: cell-based
In short: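 Necroptosis was driven by TNF-α 10 ng/ml plus SMAC mimetic 6 μM and zVAD-FMK 10 μM in serum-free medium, with compounds as a 10-point threefold titration. After 20 h at 37 °C, ATP-based luminescence was read; EC50 values are geometric means of duplicate curves.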

| Compound | EC50 |
| --- | --- |
| Cc1cnn(C)c1-c1cc(N2CCN(C(=O)N3N=CC[C@H]3c3cc(F)cc(F)c3)CC2)ncc1F [Compound 114, (S)-(5-(3,5-difluorophenyl)-4,5-dihydro-1H-pyrazol-1-yl)(4-(4-(1,4-dimethyl-1H-pyrazol-5-yl)-5-fluoropyridin-2-yl)piperazin-1-yl)methanone] | 0.0001 to 0.1 µM |
| Cc1cn(-c2nc(N3CCN(C(=O)N4N=CC[C@H]4c4cc(F)cc(C#N)c4)CC3)ncc2F)c(C#N)n1 [Compound 16, (S)-1-(2-(4-(5-(3-cyano-5-fluorophenyl)-4,5-dihydro-1H-pyrazole-1-carbonyl)piperazin-1-yl)-5-fluoropyrimidin-4-yl)-4-methyl-1H-imidazole-2-carbonitrile] | 0.0001 to 0.1 µM |
| N#Cc1cccc([C@@H]2CC=NN2C(=O)N2CCN(c3ncc(F)c(-n4cc(C(N)=O)cn4)n3)CC2)c1 [Compound 109, (S)-1-(2-(4-(5-(3-cyanophenyl)-4,5-dihydro-1H-pyrazole-1-carbonyl)piperazin-1-yl)-5-fluoropyrimidin-4-yl)-1H-pyrazole-4-carboxamide] | 0.0001 to 0.1 µM |
| Cn1nncc1-c1nc(N2CCN(C(=O)N3N=CC[C@H]3c3cc(F)cc(C#N)c3)CC2)ncc1F [Compound 41] | 0.0001 to 0.1 µM |
| O=C(N1CCN(c2ncc(F)c(-c3cn[nH]c3)n2)CC1)N1N=CC[C@H]1c1cc(F)cc(F)c1 [Compound 52, (S)-(5-(3,5-difluorophenyl)-4,5-dihydro-1H-pyrazol-1-yl)(4-(5-fluoro-4-(1H-pyrazol-4-yl)pyrimidin-2-yl)piperazin-1-yl)methanone] | 0.0001 to 0.1 µM |
| NC(=O)Cn1ccc(-c2nc(N3CCN(C(=O)N4N=CC[C@H]4c4cc(F)cc(F)c4)CC3)ncc2F)n1 [Compound 29, (S)-2-(3-(2-(4-(5-(3,5-difluorophenyl)-4,5-dihydro-1H-pyrazole-1-carbonyl)piperazin-1-yl)-5-fluoropyrimidin-4-yl)-1H-pyrazol-1-yl)acetamide] | 0.0001 to 0.1 µM |
| Cc1nc(C)n(-c2nc(N3CCN(C(=O)N4N=CC[C@H]4c4cc(F)cc(C#N)c4)CC3)ncc2F)n1 [Compound 47, (S)-3-(1-(4-(4-(3,5-dimethyl-1H-1,2,4-triazol-1-yl)-5-fluoropyrimidin-2-yl)piperazine-1-carbonyl)-4,5-dihydro-1H-pyrazol-5-yl)-5-fluorobenzonitrile] | 0.0001 to 0.1 µM |
| N#Cc1cc(F)cc([C@@H]2CC=NN2C(=O)N2CCN(c3ncc(F)c(-c4cc[nH]n4)n3)CC2)c1 [Compound 22, (S)-3-fluoro-5-(1-(4-(5-fluoro-4-(1H-pyrazol-3-yl)pyrimidin-2-yl)piperazine-1-carbonyl)-4,5-dihydro-1H-pyrazol-5-yl)benzonitrile] | 0.0001 to 0.1 µM |
| Cn1cc(-c2nc(N3CCN(C(=O)N4N=CC[C@H]4c4cc(F)cc(F)c4)CC3)ncc2F)ccc1=O [Compound 89, (S)-5-(2-(4-(5-(3,5-difluorophenyl)-4,5-dihydro-1H-pyrazole-1-carbonyl)piperazin-1-yl)-5-fluoropyrimidin-4-yl)-1-methylpyridin-2(1H)-one] | 0.0001 to 0.1 µM |
| Cc1nnnn1-c1nc(N2CCN(C(=O)N3N=CC[C@H]3c3cc(F)cc(F)c3)CC2)ncc1F [Compound 23, (S)-(5-(3,5-difluorophenyl)-4,5-dihydro-1H-pyrazol-1-yl)(4-(5-fluoro-4-(5-methyl-1H-tetrazol-1-yl)pyrimidin-2-yl)piperazin-1-yl)methanone] | 0.0001 to 0.1 µM |

Same assay, conditions: Homo sapiens; HT-29 cells, TNF-α 10 ng/ml + SMAC mimetic 6 μM + zVAD-FMK 10 μM, 20 hours; geometric mean, 10 points in duplicate; read-out: EC50 (Cell activity; Necrosis/Necroptosis Inhibitory Activity, Compounds 143-323)

| Compound | EC50 |
| --- | --- |
| Cc1c(N)nn(C)c1-c1ccnc(N2CCN(C(=O)N3N=CC[C@H]3c3cc(F)cc(C#N)c3)CC2)n1 [Compound 154, (S)-3-(1-(4-(4-(3-amino-1,4-dimethyl-1H-pyrazol-5-yl)pyrimidin-2-yl)piperazine-1-carbonyl)-4,5-dihydro-1H-pyrazol-5-yl)-5-fluorobenzonitrile] | 0.0001 to 0.1 µM |
| Cc1nc(C)n(-c2nc(N3CCN(C(=O)N4N=CC[C@H]4c4cc(F)cc(C#N)c4)CC3)c(F)cc2F)n1 [Compound 233, (S)-3-(1-(4-(6-(3,5-dimethyl-1H-1,2,4-triazol-1-yl)-3,5-difluoropyridin-2-yl)piperazine-1-carbonyl)-4,5-dihydro-1H-pyrazol-5-yl)-5-fluorobenzonitrile] | 0.0001 to 0.1 µM |
| Cc1cnn(C)c1-c1ncc(F)c(N2CCN(C(=O)N3N=CCC3c3cscn3)CC2)n1 (stereo not drawn) [Compound 160, (4-(2-(1,4-dimethyl-1H-pyrazol-5-yl)-5-fluoropyrimidin-4-yl)piperazin-1-yl)(5-(thiazol-4-yl)-4,5-dihydro-1H-pyrazol-1-yl)methanone] | 0.0001 to 0.1 µM |
| Cc1cnn(C)c1-c1ccc(F)c(N2CCN(C(=O)N3N=CCC3c3cccnc3)CC2)n1 (stereo not drawn) [Compound 295, (4-(6-(1,4-dimethyl-1H-pyrazol-5-yl)-3-fluoropyridin-2-yl)piperazin-1-yl)(5-(pyridin-3-yl)-4,5-dihydro-1H-pyrazol-1-yl)methanone] | 0.0001 to 0.1 µM |
| Cc1cnn(C)c1-c1sc(N2CCN(C(=O)N3N=CC[C@H]3c3cc(F)cc(F)c3)CC2)nc1Cl [Compound 185, (S)-(4-(4-chloro-5-(1,4-dimethyl-1H-pyrazol-5-yl)thiazol-2-yl)piperazin-1-yl)(5-(3,5-difluorophenyl)-4,5-dihydro-1H-pyrazol-1-yl)methanone] | 0.0001 to 0.1 µM |
| Cc1nc(C)n(-c2nc(N3CCN(C(=O)N4N=CC[C@H]4c4cc(F)cc(F)c4F)CC3)ncc2F)n1 [Compound 264, (S)-(4-(4-(3,5-dimethyl-1H-1,2,4-triazol-1-yl)-5-fluoropyrimidin-2-yl)piperazin-1-yl)(5-(2,3,5-trifluorophenyl)-4,5-dihydro-1H-pyrazol-1-yl)methanone] | 0.0001 to 0.1 µM |
| Cn1ncnc1-c1ccc(F)c(N2CCN(C(=O)N3N=CC[C@H]3c3cc(F)cc(F)c3)CC2)n1 [Compound 175, (S)-(5-(3,5-difluorophenyl)-4,5-dihydro-1H-pyrazol-1-yl)(4-(3-fluoro-6-(1-methyl-1H-1,2,4-triazol-5-yl)pyridin-2-yl)piperazin-1-yl)methanone] | 0.0001 to 0.1 µM |
| Cn1cnnc1-c1nc(N2CCN(C(=O)N3N=CC[C@H]3c3cc(F)cc(C#N)c3)CC2)ncc1F [Compound 197, (S)-3-fluoro-5-(1-(4-(5-fluoro-4-(4-methyl-4H-1,2,4-triazol-3-yl)pyrimidin-2-yl)piperazine-1-carbonyl)-4,5-dihydro-1H-pyrazol-5-yl)benzonitrile] | 1 to 10 µM |
| Cc1cnc(C2CC=NN2C(=O)N2CCN(c3ncc(F)c(-c4cnn(C)n4)n3)CC2)s1 (stereo not drawn) [Compound 317, (4-(5-fluoro-4-(2-methyl-2H-1,2,3-triazol-4-yl)pyrimidin-2-yl)piperazin-1-yl)(5-(5-methylthiazol-2-yl)-4,5-dihydro-1H-pyrazol-1-yl)methanone] | 0.1 to 1 µM |
| Cc1nn(-c2cc(N3CCN(C(=O)N4N=CC[C@H]4c4cc(F)cc(C#N)c4)CC3)ncn2)c(C)c1Cl [Compound 289, (S)-3-(1-(4-(6-(4-chloro-3,5-dimethyl-1H-pyrazol-1-yl)pyrimidin-4-yl)piperazine-1-carbonyl)-4,5-dihydro-1H-pyrazol-5-yl)-5-fluorobenzonitrile] | 0.0001 to 0.1 µM |
| Cc1nc(C)n(-c2nc(N3CCN(C(=O)N4N=CC[C@H]4c4cc(F)cc(C#N)c4)CC3)ncc2Cl)n1 [Compound 260, (S)-3-(1-(4-(5-chloro-4-(3,5-dimethyl-1H-1,2,4-triazol-1-yl)pyrimidin-2-yl)piperazine-1-carbonyl)-4,5-dihydro-1H-pyrazol-5-yl)-5-fluorobenzonitrile] | 0.0001 to 0.1 µM |
